Where “and” joins values, the source holds several entries; their conditions need not be identical. Equal entries are not always repeated.
How the values were obtained:
[1] = test system: Beagle dogs; test: 13-week repeat dose toxicity in Beagle dogs, combination with methotrexate: clinical biochemistry (ALAT, ASAT); type: in vivo; conditions: for ALAT, change as compared to the control group 1 / ASAT, change as compared to the control group 1: 25 mg Formula (II)/kg/day and/or 10/2.5 mg MTX/kg/week, p.o.
Method: For laboratory examinations blood samples were taken from the vena cephalica or vena saphena magna from animals fasted overnight. Serum samples were collected into tubes for biochemical tests. Clinical biochemistry parameters from venous blood were determined at the times listed below:
Prior to study start: all animals of a pool of 52 dogs […]
At the end of the recovery period: all 8 recovery animals included in this study
Clinical biochemistry parameters (e.g. bile acids, alanine aminotransferase=ALAT, alkaline phosphatise=aP, aspartate aminotransferase=ASAT, gamma-glutamyl-transferase=Gamma-GT, glutamate dehydrogenase=GLDH, creatine kinase=CK) were measured using KONELAB 30i instrument (Thermo Fisher Scientific, 63303 Dreieich, Germany) as U/L (unit/liter) serum.

[2] = Toxicokinetics of formula (II) and methotrexate after individual and concomitant administration to Beagle dogs; type: in vivo; conditions: for AUC(0-inf) / Cmax / half-life: mean
[3] = test system: Beagle dogs; conditions: Beagle dogs, 13 weeks oral
From the text: The animals were randomly allocated to five test groups employing a pseudo-random body weight stratification procedure that yielded groups with approximately equal mean body weights. […] A special focus of the study was to study the influence of the combination treatment on liver toxicity.

[4] = test system: DBA1/J mice; test: Collagen Induced Arthritis in Mice, Arthritic Index (AI); type: in vivo; conditions: po once daily, MTX 2.5 mg/kg, Formula (II) 50 mg/kg; for Average Arthritic Index, Mean: group mean
Method: Collagen Induced Arthritis in Mice
Bovine Type II collagen solution is prepared by dissolving at 4 mg/ml in 0.01 M acetic acid at 4-8° C. with stirring overnight. Immunogen is prepared by emulsifying a 1:1 vol:vol combination of collagen solution and Complete Freund's Adjuvant (CFA) (M. tuberculosis H37Ra suspension: 4 mg/ml).
DBA1/J mice (male, 7-8 weeks) are weighed. The animals are anesthetized, injected subcutaneously into the shaved base of the tail with collagen/CFA (0.050 ml/mouse; 100 microgram/mouse collagen in CFA) using a 1 ml syringe fitted with a 25 G needle and returned to the cages.
After three weeks (21 d) the procedure is repeated, though now with incomplete Freund's adjuvant (IFA) instead of CFA.
Animals are observed for one week and macroscopic signs of arthritis are scored 3-times weekly (Monday, Wednesday, Friday: M, W, F). Each paw receives a score: • a) 0=no visible effects of arthritis; • b) 1=edema and/or erythema of 1 digit; • c) 2=edema and/or erythema of 2 digits; • d) 3=edema and/or erythema of more than 2 digits; • e) 4=severe arthritis of entire paw and digits.
Calculate Arthritic Index (AI) by addition of individual paw scores and record. (Maximum AI=16)
After one week, mice are allocated to groups (10 mice per group) to give similar mean AI values and similar ranges of individual AI values in each treatment group.
Dosing is started, PO (per oral) once daily for 14 days.
AI scores determined 3× weekly.

[5] = female, Beagle, dog, plasma, po, 10 mg/kg, Group 4 (+MTX), formula (II) 10 mg/kg, day 1, female Beagle dogs
[6] = female, Beagle, dog, plasma, po, 10 mg/kg, Group 4 (+MTX), formula (II) 10 mg/kg, week 13, female Beagle dogs
[7] = female, Beagle, dog, plasma, po, 25 mg/kg, Group 2, formula (II) 25 mg/kg alone, day 1, female Beagle dogs
[8] = female, Beagle, dog, plasma, po, 25 mg/kg, Group 2, formula (II) 25 mg/kg alone, week 13, female Beagle dogs
[9] = female, Beagle, dog, plasma, po, 25 mg/kg, Group 5 (+MTX), formula (II) 25 mg/kg, day 1, female Beagle dogs
[10] = female, Beagle, dog, plasma, po, 25 mg/kg, Group 5 (+MTX), formula (II) 25 mg/kg, week 13, female Beagle dogs
[11] = male, Beagle, dog, plasma, po, 10 mg/kg, Group 4 (+MTX), formula (II) 10 mg/kg, day 1, male Beagle dogs
[12] = male, Beagle, dog, plasma, po, 10 mg/kg, Group 4 (+MTX), formula (II) 10 mg/kg, week 13, male Beagle dogs
[13] = male, Beagle, dog, plasma, po, 25 mg/kg, Group 2, formula (II) 25 mg/kg alone, day 1, male Beagle dogs
[14] = male, Beagle, dog, plasma, po, 25 mg/kg, Group 2, formula (II) 25 mg/kg alone, week 13, male Beagle dogs
[15] = male, Beagle, dog, plasma, po, 25 mg/kg, Group 5 (+MTX), formula (II) 25 mg/kg, day 1, male Beagle dogs
[16] = male, Beagle, dog, plasma, po, 25 mg/kg, Group 5 (+MTX), formula (II) 25 mg/kg, week 13, male Beagle dogs

COc1cccc(-c2ccc(NC(=O)C3=C(C(=O)O)CCC3)c(F)c2)c1 [Formula (II)]
Changes in the biochemical parameters ([1]; Beagle dogs, 13 weeks oral, serum): slight increased enzyme activities of ALAT, ASAT and GLDH as well as slight increases of the bile acid concentration in serum | ALAT, change as compared to the control group 1 ([1]; Test day 37, females): None | ASAT, change as compared to the control group 1 ([1]; Test day 37, females): None | ALAT, change as compared to the control group 1 ([1]; Test day 37, males): none | ASAT, change as compared to the control group 1 ([1]; Test day 37, males): none | ALAT, change as compared to the control group 1 ([1]; Test day 93, females): None | ASAT, change as compared to the control group 1 ([1]; Test day 93, females): None | ALAT, change as compared to the control group 1 ([1]; Test day 93, males): None | ASAT, change as compared to the control group 1 ([1]; Test day 93, males): None | Toxicokinetic findings (plasma levels, interaction) ([2]; Beagle dogs, test day 1 and 85): clear dose response relationship | AUC(0-t) ([2]; female, Beagle, dog, plasma, po, 10 mg/kg): 598 µg·h/mL | AUC(0-inf) [2, 5]: 513 µg·h/mL | Cmax [2, 5]: 43000 ng/mL | half-life [2, 5]: 7.4 h | Cmax [2, 6]: 40500 ng/mL | half-life [2, 6]: 26.7 h | AUC(0-inf) [2, 7]: 773 µg·h/mL | Cmax [2, 7]: 56300 ng/mL | half-life [2, 7]: 8.6 h | AUC(0-inf) [2, 8]: 1010 µg·h/mL | Cmax [2, 8]: 66600 ng/mL | half-life [2, 8]: 11.1 h | AUC(0-inf) [2, 9]: 413 µg·h/mL | Cmax [2, 9]: 33100 ng/mL | half-life [2, 9]: 7.6 h | AUC(0-inf) [2, 10]: 1190 µg·h/mL | Cmax [2, 10]: 76300 ng/mL | half-life [2, 10]: 8.1 h | AUC(0-inf) [2, 11]: 322 µg·h/mL | Cmax [2, 11]: 30300 ng/mL | half-life [2, 11]: 6.3 h | AUC(0-inf) [2, 12]: 371 µg·h/mL | Cmax [2, 12]: 35700 ng/mL | half-life [2, 12]: 6.3 h | AUC(0-inf) [2, 13]: 289 µg·h/mL | Cmax [2, 13]: 22700 ng/mL | half-life [2, 13]: 7.8 h | AUC(0-inf) [2, 14]: 601 µg·h/mL | Cmax [2, 14]: 56900 ng/mL | half-life [2, 14]: 6.1 h | AUC(0-inf) [2, 15]: 858 µg·h/mL | Cmax [2, 15]: 60000 ng/mL | half-life [2, 15]: 8.4 h | AUC(0-inf) [2, 16]: 659 µg·h/mL | Cmax [2, 16]: 53600 ng/mL | half-life [2, 16]: 7.9 h | Influence on body weight, food and drinking water consumption and haematological parameters [3]: no influence | Average Arthritic Index, Mean ([4]; study day 22): 0 | Arthritic Index (individual mouse) ([4]; study day 22): 0 | Average Arthritic Index, Mean ([4]; study day 23): 0 | Arthritic Index (individual mouse) ([4]; study day 23): 0 | Average Arthritic Index, Mean ([4]; study day 24): 0 | Arthritic Index (individual mouse) ([4]; study day 24): 0 | Average Arthritic Index, Mean ([4]; study day 25): 0 | Arthritic Index (individual mouse) ([4]; study day 25): 0 | Average Arthritic Index, Mean ([4]; study day 26): 0 | Arthritic Index (individual mouse) ([4]; study day 26): 0 | Average Arthritic Index, Mean ([4]; study day 27): 0 | Arthritic Index (individual mouse) ([4]; study day 27): 0 | Average Arthritic Index, Mean ([4]; study day 28): 0.7 | Arthritic Index (individual mouse) ([4]; study day 28): 1 (3×) and 0 (4×) and 2 | Average Arthritic Index, Mean ([4]; study day 30): 0.9 | Arthritic Index (individual mouse) ([4]; study day 30): 1 (4×) and 0 (3×) and 2 and 3 | Average Arthritic Index, Mean ([4]; study day 31): 2.2 | Arthritic Index (individual mouse) ([4]; study day 31): 2 (2×) and 3 (3×) and 1 (3×) and 4 | Average Arthritic Index, Mean ([4]; study day 32): 3.6 | Average Arthritic Index, Mean ([4]; study day 33): 5.2 | Arthritic Index (individual mouse) ([4]; study day 33): 6 (2×) and 11 and 2 (2×) and 5 (3×) and 8 | Average Arthritic Index, Mean ([4]; study day 35): 5.9 | Arthritic Index (individual mouse) ([4]; study day 35): 5 (2×) and 12 and 4 (3×) and 3 and 8 | Average Arthritic Index, Mean ([4]; study day 37): 6.9 | Average Arthritic Index, Mean ([4]; study day 40): 6.9 | Average Arthritic Index, Mean ([4]; study day 42): 7.0 | Average Arthritic Index, Mean ([4]; study day 44): 7.1 | Average Arthritic Index, Mean ([4]; study day 47): 7.6

Reference: patent publication US20120028985A1, “COMBINATIONAL THERAPY FOR TREATING AUTOIMMUNE DISEASE” (4SC AG, priority 2008, published 2012)
